In US5962447A, “Benzoxazines for enhancing synaptic response” (The Regents of the University of California, priority 1998, dated 1999):

Experiments:
AMPA receptors = assay: In vitro physiological testing: field EPSPs in rat hippocampal slices (CA1); assay type: cell-based, rat (Sprague-Dawley); conditions: for in vitro enhancement by rotational restriction vs. corresponding rotomer: figure: +50% half-width, vs. substituted benzoyl piperidine rotomers; for +25% Amplitude (estimated concentration required to increase the amplitude of the EPSP to 25% above baseline) / +50% Half-Width (estimated concentration required to increase the width of the EPSP at half-height by 50%): rat hippocampal slice, 35° C., about 15 min perfusion, estimated by interpolation in most cases, extrapolation for others
Method: In Vitro Physiological Testing
The physiological effects of the compounds of this invention were determined in vitro with slices of rat hippocampus by measuring excitatory responses (field EPSPs) in hippocampal slices maintained in a recording chamber continuously perfused with artificial cerebrospinal fluid (ACSF). During a 15-30 minute interval, the perfusion medium was switched to one containing various concentrations of the test compounds. Responses collected immediately before and at the end of drug perfusion were superimposed in order to calculate both the percent increase in EPSP amplitude and percent increase in the width of the response at one-half the peak height (half-width).
To conduct these tests, the hippocampus was removed from anesthetized, 2 month old Sprague-Dawley rats, and in vitro slices (400 micrometers thick) were prepared and maintained in an interface chamber at 35° C. using conventional techniques. this is the procedure used by Dunwiddie and Lynch, J. Physiol. […] A bipolar nichrome stimulating electrode was positioned in the dendritic layer (stratum radiatum) of the hippocampal subfield CA1 close to the border of subfield CA3.
Current pulses (0.1 msec) through the stimulating electrode activated a population of the Schaffer-commissural (SC) fibers which arise from neurons in the subdivision CA3 and terminate in synapses on the dendrites of CA1 neurons. Activation of these synapses causes them to release the transmitter glutamate. Glutamate binds to the post-synaptic AMPA receptors which then transiently open an associated ion channel and permit a sodium current to enter the postsynaptic cell. This current results in a voltage in the extracellular space (the field excitatory post-synaptic potential or field "EPSP") which is recorded by a high impedance recording electrode positioned in the middle of the stratum radiatum of CA1.
For the experiments summarized in the table below, the intensity of the stimulation current was adjusted to produce half-maximal EPSPs (typically about 1.5-2.0 mV). Paired stimulation pulses were given every 40 seconds with an interpulse interval of 200 msec. The field EPSPs of the second response were digitized and analyzed to determine amplitude, half-width, and response area. If the responses were stable for 15-30 minutes (baseline), test compounds were added to the perfusion lines for a period of about 15 minutes. The perfusion was then changed back to regular ACSF.
Paired-pulse stimulation was used since stimulation of the SC fibers in part activates interneurons which generate an inhibitory postsynaptic potential (IPSP) in the pyramidal cells of CA1. This feed-forward IPSP typically sets in after the EPSP reaches its peak. The feed-forward IPSP accelerates the repolarization and shortens the decay phase of the EPSP, and thus could partially mask the effects of the test compounds. One of the relevant features of the feed-forward IPSP is that it cannot be reactivated for several hundred milliseconds following a stimulation pulse. This phenomenon can be employed to advantage to eliminate IPSP by delivering paired pulses separated by 200 milliseconds and using the second ("primed") response for data analysis.
The compounds of the invention were assayed in the physiological test system described above for the generation of data presented in the table below. […] Values have been estimated by interpolation in most cases, but by extrapolation from determined values for others.

[1] = Enhancing memory in rats, 8-arm radial maze learning paradigm; assay type: in vivo, rat; conditions: for minimal effective dose: Rattus norvegicus, rats, read-out: Behavioral Dose (threshold dose for enhancing memory); for in vivo enhancement by rotational restriction vs. corresponding rotomer: figure: threshold dose
AMPA receptor = assay: In vitro hippocampal patch preparation, effect on AMPA receptor function; assay type: cell-based; conditions: Chiralpak AD, hexane/50% isopropanol
Method: This isomer was determined to be the (+)-enantiomer.

[2] = metabolite of aniracetam; cited from earlier work

Compound	+25% Amplitude (estimated concentration required to increase the amplitude of the EPSP to 25% above baseline) (AMPA receptors)	+50% Half-Width (estimated concentration required to increase the width of the EPSP at half-height by 50%) (AMPA receptors)	also measured
O=C1c2cc3c(cc2OC2CCCN12)OCO3 (single isomer, unassigned) [first eluting enantiomer]	–	–	activity of first eluting enantiomer relative to second eluting enantiomer (effect on EPSP) (AMPA receptors; Chiralcel OD, hexane/10% isopropanol, in vitro hippocampal slice): at least 10 -fold
O=C1c2cc3c(cc2OC2CCCN12)OCO3 (racemic) [Compound I, (R,S)-1,3-Dioxolo[4,5-g]-2,3-dihydro-1H-pyrrolo[2,1-b][1,3]benzoxazine-10(3aH)-one]	0.1 mM	0.05 mM	minimal effective dose [1]: 1 mg/kg; in vivo enhancement by rotational restriction vs. corresponding rotomer [1]: marked enhancement; in vitro enhancement by rotational restriction vs. corresponding rotomer (AMPA receptors): marked enhancement
COc1ccc2c(c1)C(=O)N1CCCC1(C)O2 (racemic) [Compound VIII, (R,S)-7-Methoxy-3a-methyl-2,3-dihydro-1H-pyrrolo[2,1-b][1,3]benzoxazine-9-one]	> 0.3 mM	0.4 mM	–
COc1ccc2c(c1)C(=O)N1CCCC1O2 (racemic) [Compound V, (R,S)-7-Methoxy-2,3-dihydro-1H-pyrrolo[2,1-b][1,3]benzoxazine-9(3aH)-one]	1 mM	0.25 mM	–
O=C1c2cc3nccnc3cc2OC2CCCN12 (racemic) [Compound VI, (R,S)-Pyrazino[2,3-g]-2,3-dihydro-1H-pyrrolo[2,1-b][1,3]benzoxazine-11(3aH)-one]	0.1 mM	0.1 mM	minimal effective dose [1]: 2 mg/kg; in vivo enhancement by rotational restriction vs. corresponding rotomer [1]: marked enhancement; in vitro enhancement by rotational restriction vs. corresponding rotomer (AMPA receptors): marked enhancement
O=C1c2cc3c(cc2OC2CCCCN12)OCO3 (racemic) [Compound II, (R,S)-1,3-Dioxolo[4,5-g]-1,2,3,4-tetrahydropyrido[2,1-b][1,3]benzoxazine-11(4aH)-one]	0.3 mM	0.2 mM	–
O=C1c2cc3c(cc2OC2CCCN12)OCCO3 (single isomer, unassigned) [second eluting enantiomer]	–	–	activity of second eluting enantiomer relative to first eluting enantiomer (effect on AMPA receptor function) (AMPA receptor): at least 10 -fold
COc1ccc(C(=O)NCCCC(=O)O)cc1 [anisoyl-GABA]	–	–	aniracetam-like effects [2]: no aniracetam-like effects
O=C1c2cc3c(cc2OC2CCCN12)OCCO3 (racemic) [Compound III, (R,S)-1,4-Dioxan[2,3-g]-2,3-dihydro-1H-pyrrolo[2,1-b][1,3]benzoxazine-11(3aH)-one]	> 0.03 mM	0.02 mM	potency in the behavioral task vs. corresponding rotomer and other ampakines of WO 94/02475 [1]: ten times more potent; minimal effective dose [1]: 0.1 mg/kg; in vivo enhancement by rotational restriction vs. corresponding rotomer [1]: marked enhancement; in vitro enhancement by rotational restriction vs. corresponding rotomer (AMPA receptors): marked enhancement
O=C1c2cc3nccnc3cc2OC2CCCCN12 (racemic) [Compound VII, (R,S)-Pyrazino[2,3-g]-1,2,3,4-tetrahydropyrido[2,1-b] [1,3] benzoxazine-12(4aH)-one]	0.4 mM	0.3 mM	–
COc1ccc2c(c1)OC1CCCN1C2=O (racemic) [Compound IV, (R,S)-6-Methoxy-2,3-dihydro-1H-pyrrolo[2,1-b][1,3]benzoxazine-9(3aH)-one]	> 1 mM	0.4 mM	–
